The EC50 is the concentration that produces a half-maximal response. As usually defined, the logD is lipophilicity at a set pH, counting ionised and neutral species. Read a low logD as a more hydrophilic compound. Broadly, the half-life is the time needed for the level to fall by half in the phase considered. A higher half-life goes with slow decline. The IC50 is the point on the concentration scale where inhibition reaches its midpoint. Higher therefore signals weaker potency. The CC50 is the concentration giving 50% cytotoxicity. A high value points to better tolerance by the cells.

Molecules are shown by their SMILES. Activity calls are given as the source filed them. A value given as a limit tells only on which side of the number the result lay.

The test system of data set [1] is Plasmodium falciparum. Kind of data set: Antiplasmodial activity against Plasmodium falciparum K1 infected in erythrocytes assessed as reduction in parasite DNA after 72 hrs by SYBR Green I fluorescence based assay. Type of data set: functional, organism-based. The following applies: K1, Erythrocyte.
The nature of data set [2]: Selectivity index, ratio of CC50 for human HepG2 cells to EC50 for Plasmodium falciparum K1. Type of data set: toxicity. The following applies: read-out: Ratio CC50/EC50.
A short description of data set [3]: Lipophilicity, logD of the compound at pH 7.4. Type of data set: physicochemical. The settings on record: buffer.
The nature of data set [4]: Half-life in mouse plasma. Type of data set: ADME, cell-free.
Data set [5] in a line: Half-life in mouse liver microsomes. Type of data set: ADME, Microsome.
Data set [6] concerns the target Bifunctional dihydrofolate reductase-thymidylate synthase (Plasmodium falciparum K1) (UniProt P13922). Kind of data set: Inhibition of Plasmodium falciparum DHFR.
The nature of data set [7]: Inhibition of Plasmodium falciparum PYK-1.
Data set [8] can be described thus: Cytotoxicity against human HepG2 cells incubated for 72 hrs by MTT assay. Type of data set: toxicity, cell-based. (In general: Tetrazolium dyes change colour on reduction, which living cells bring about.)

Bifunctional dihydrofolate reductase-thymidylate synthase (Plasmodium falciparum K1), sequence (P13922 whole entry, looked up): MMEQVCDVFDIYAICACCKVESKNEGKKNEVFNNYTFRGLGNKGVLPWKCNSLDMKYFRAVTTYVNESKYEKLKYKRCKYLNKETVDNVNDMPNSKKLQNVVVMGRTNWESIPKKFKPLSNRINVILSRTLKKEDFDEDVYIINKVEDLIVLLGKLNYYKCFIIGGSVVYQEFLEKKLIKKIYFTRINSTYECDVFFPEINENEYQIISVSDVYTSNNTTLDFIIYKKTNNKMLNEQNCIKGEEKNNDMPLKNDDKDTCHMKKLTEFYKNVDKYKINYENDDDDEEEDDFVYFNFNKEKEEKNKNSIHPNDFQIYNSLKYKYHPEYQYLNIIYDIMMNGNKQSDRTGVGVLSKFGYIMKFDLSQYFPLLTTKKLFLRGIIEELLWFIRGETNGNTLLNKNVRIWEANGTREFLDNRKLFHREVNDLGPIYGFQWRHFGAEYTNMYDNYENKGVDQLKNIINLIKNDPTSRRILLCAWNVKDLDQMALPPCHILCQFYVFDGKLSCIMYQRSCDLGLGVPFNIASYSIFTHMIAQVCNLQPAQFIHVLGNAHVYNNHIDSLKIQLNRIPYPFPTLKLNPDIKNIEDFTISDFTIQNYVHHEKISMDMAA

On to `CCN(CC)CCCC(C)Nc1ccnc2cc(Cl)ccc12` (configuration not stated) [CHLOROQUINE], for which the half-maximal effective concentration (EC50) in data set [1] was 0.5 µM. Moreover, the selectivity ratio in data set [2] was determined as 60.
In the same order, the values of `C[C@H]1c2cccc(O)c2C(=O)C2=C(O)[C@]3(O)C(=O)C(C(N)=O)=C(O)[C@@H](N(C)C)[C@@H]3[C@@H](O)[C@@H]21` [DOXYCYCLINE ANHYDROUS] are 5 µM and 4.
On to `Clc1ccc(Nc2nc(C(Cl)(Cl)Cl)nc3ccccc23)c(Cl)c1`, for which the logD in data set [3] stood at 3.6. The half-life in data set [4] is more than 360 min; in data set [5] it was 18 min. Also, the inhibition entry in data set [6] was “Active”.
`O=C(O)C(=O)O` [OXALIC ACID]: in data set [7], the half-inhibitory concentration (IC50) amounted to 150 µM.
With `CC(C)(C)OC(=O)NCCOCCOCCNCc1ccc2c(Nc3ccc(Cl)cc3Cl)nc(C(Cl)(Cl)Cl)nc2c1`, in data set [1], the EC50 is 0.6 µM. It took 19 µM to reach half-maximal cytotoxicity in data set [8] (CC50 at 72 h). In addition, the selectivity ratio in data set [2] turned out to be 32.
For `C[C@H]1[C@H](OC(=O)CCC(=O)O)O[C@@H]2O[C@@]3(C)CC[C@H]4[C@H](C)CC[C@@H]1[C@@]24OO3` [ARTESUNATE], in data set [1], the 50% effective concentration (EC50) was 0.004 µM.
Molecule `Cc1ccc(C(=O)Nc2ccc(S(=O)(=O)O)c3cc(S(=O)(=O)O)cc(S(=O)(=O)O)c23)cc1NC(=O)c1cccc(NC(=O)Nc2cccc(C(=O)Nc3cc(C(=O)Nc4ccc(S(=O)(=O)O)c5cc(S(=O)(=O)O)cc(S(=O)(=O)O)c45)ccc3C)c2)c1` [SURAMIN] had an IC50 in data set [7] of 128 µM.
As to `CC(C)(C)OC(=O)NCCCOCCOCCOCCCNCc1ccc2c(Nc3ccc(Cl)cc3Cl)nc(C(Cl)(Cl)Cl)nc2c1`, the EC50 in data set [1] came to 0.15 µM. The same molecule showed a CC50 at 72 h in data set [8] of 3.1 µM. Besides, in data set [2], the selectivity ratio stood at 21.

Source of the values: ChEMBL document CHEMBL5550095 (Bioorg Med Chem, 2024).
